Test results reported in patent US20120264811A1, “Elongator Proteins and Use Thereof as DNA Demethylases” (The University of North Carolina at Chapel Hill, priority 2009, published 2012).
“Also recorded” adds a separate entry of the source.

How the values were obtained:
[1] = system: paternal DNA demethylation; assay: chemical injection into oocytes, paternal DNA demethylation; type: cell-based, mouse; details: approximately 10 pl of 10 μM in ethanol injected; final concentration estimated 0.4 μM
Protocol: For chemical injection, approximately 10 pl of 3,5-Di-tert-butyltoluene and butylated hydroxytoluence (Sigma Aldrich) at the concentration of 10 μM in ethanol were injected with H3.3-mRFP1 mRNA. The final chemical concentration is estimated as
0.4 μM based on an estimated mouse oocyte volume of 270 pl. The final estimated ethanol concentration is about 4%. For determination of knockdown efficiency, RNA isolated from 10-20 zygotes at PN4-5 stage was used for reverse transcription using the SuperScript III Cell Direct cDNA synthesis kit (Invitrogen) followed by quantitative PCR (qPCR) using SYBR GreenER (Invitrogen). Results were normalized with 18S rRNA as a standard.

[2] = system: NIH3T3 cells that stably express CxxC-EGFP; assay: CxxC-EGFP reporter dot formation in NIH3T3 cells; type: cell-based, mouse; details: 5 μM for 72 hours

SMILES: Cc1cc(C(C)(C)C)c(O)c(C(C)(C)C)c1 [butylated hydroxytoluene]
- paternal DNA demethylation after chemical injection [1]: blocked DNA demethylation

SMILES: Nc1ncn([C@H]2C[C@H](O)[C@@H](CO)O2)c(=O)n1 [5-Aza-dC, 5-Aza-2′ deoxycytidine]
- number and intensity of GFP bright dots (nuclear dot-formation of CxxC probe) [2]: clear increase; also recorded: Enhanced nuclear dot-formation
